pIC50: −log10 of the molar value. Values joined by “and” are separate entries in the source; they are usually repeats but may differ in a detail not shown here. Equal values may be shown once.
What was measured:
[1] = target: T1, P-glycoprotein (Human MDR1) (Homo sapiens, UniProt P08183); assay: P-glycoprotein substrate recognition test; assay type: in vitro ADME; settings: ratio of apical→basal and basal→apical membrane permeation coefficients; for efflux ratio at 10 μM: human, LLC-PK1, LLC-GA5-COL300 cells on transwell
T1 construct: expressed in transfected cells; host or cells: LLC-GA5-COL300 (derived from pig kidney LLC-PK1)
Experimental: (Test 4: P-Glycoprotein Substrate Recognition Test)
LLC-GA5-COL300 cells (Human MDR1 expressing system derived from pig kidney derived, cultured renal epithelial cell line LLC-PK1) were cultured on a transwell. Immediately before the test, the culture medium was replaced by Hank's balanced salt solution (HBSS) and the test was then conducted. A solution of an assay compound adjusted to a final concentration of 10 μM was added to the donor side of LLC-GA5-COL300 cells and after the passage of a predetermined period of time, a specified quantity of […] was sampled from the acceptor side. The concentration of the assay compound in the sample was measured by LC-MS/MS. From the amounts of the compound that accumulated and passed into the acceptor side, membrane permeation coefficients (×10^−6 cm/sec) were calculated for apical→basal and basal→apical directions and their relative ratio (efflux ratio) was determined to evaluate the P-glycoprotein substrate recognition.

H3 receptor = target: T2, H3 receptor (Rattus norvegicus, UniProt Q9QYN8); assay: Rat H3 receptor binding test (N-α-methyl[3H]histamine); settings: rat frontal cortex membrane fraction, N-α-methyl[3H]histamine 0.75 nM
T2 construct: The frontal cortex dissected from rats was homogenized; from tissue; host or cells: rat frontal cortex membrane fraction
Experimental: (Test 1: Rat H3 Receptor Binding Test)
The frontal cortex dissected from rats was homogenized with a Teflon homogenizer in a 50 mM Tris-HCl buffer solution (pH 7.4) containing a protease inhibitor (Complete EDTA-free; Roche Diagnostics) and 5 mM EDTA. The homogenate was centrifuged at 48,000×g for 15 minutes. The supernatant was removed and the pellet was suspended in a 50 mM Tris-HCl buffer solution (pH 7.4) containing 5 mM EDTA and centrifuged at 48,000×g for 15 minutes. The supernatant was removed and the pellet was suspended in a 50 mM Tris-HCl buffer solution (pH 7.4) containing 5 mM EDTA to give a membrane fraction. The membrane fraction (the protein content in the final reaction mixture: 75 μg), N-α-methyl[^3H]histamine (PerkinElmer; final concentration: 0.75 nM) and a test drug were mixed and subjected to reaction at room temperature for an hour. After the end of the reaction, the reaction mixture was suction filtered through a 96-well GF/C filter plate pretreated with 0.3% polyethyleneimine; the filters were then washed five times with a 50 mM Tris-HCl buffer solution (pH 7.4) containing 5 mM EDTA. After the washing, the filters were dried and a scintillator was added to measure the residual radioactivity on the filter with TopCount (PerkinElmer).
The residual radioactivity in the presence of 10 μM thioperamide was taken as indicative of nonspecific binding and the difference from the residual radioactivity in the absence of thioperamide was taken as indicative of specific binding. Each of the test drugs was dissolved and diluted in DMSO at varying concentrations to plot a dose-response curve from the corresponding residual radio activities; the concentration of test drug that inhibited the specific binding by 50% (IC50) was determined from this curve.

histamine H3 receptor = target: T3, histamine H3 receptor (Rattus norvegicus, UniProt Q9QYN8); assay: [35S]GTP-γ-S binding test; assay type: biochemical; settings: rat frontal cortex membrane fraction, R(−)-α-methyl histamine 300 nM, [35S]GTP-γ-S 0.3 nM
T3 construct: The frontal cortex dissected from rats was homogenized; from tissue; host or cells: rat frontal cortex membrane fraction
Experimental: (Test 2: [^35S]GTP-γ-S Binding Test)
The frontal cortex dissected from rats was homogenized with a Teflon homogenizer in a 30 mM Tris-HCl buffer solution (pH 7.4) containing 2.5 mM calcium chloride dihydrate. The homogenate was centrifuged at 48,000×g for 15 minutes. The supernatant was removed and the pellet was suspended in a 30 mM Tris-HCl buffer solution (pH 7.4) containing 2.5 mM calcium chloride dihydrate and centrifuged at 48,000×g for 15 minutes. The supernatant was removed and the pellet was suspended in a 30 mM Tris-HCl buffer solution (pH 7.4) containing 2.5 mM calcium chloride dihydrate and after incubation at 37° C. for 30 minutes, the suspension was centrifuged at 48,000×g for 15 minutes. The resulting supernatant was removed and the pellet was suspended in a 20 mM HEPES buffer solution (pH 7.4) containing 100 mM sodium chloride and 10 mM magnesium chloride to give a membrane fraction. […] After the washing, the filters were dried and a scintillator was added to measure the residual radioactivity on the filter with TopCount (PerkinElmer).
The residual radioactivity in the absence of R(−)-α-methyl histamine was taken as indicative of nonspecific binding and the difference from the residual radioactivity in the presence of R(−)-α-methyl histamine was taken as indicative of specific binding. […]

[2] = Rat in vivo pharmacokinetic study; design: species or system SD rats; settings: for concentration at 1 h / Kp at 1 h: SD, rat, in vivo, po, 3 mg/kg
Experimental: (Test 3: Rat In Vivo Pharmacokinetic Study)
SD rats were given a single oral administration of Compound No. 3, 4 or 7 at a dose of 3 mg/kg and an hour after the administration, the compound's distribution among the plasma, brain, and cerebrospinal fluid was checked. Quantification was effected by a high-performance chromatography/tandem mass spectrometer API 4000 (LC-MS/MS; AB Sciex). As it turned out, Compound Nos. 3, 4 and 7 had good brain/plasma movement ratios of 4.5, 2.9 and 2.2, respectively, with the corresponding intracerebral concentrations of 78.2 ng/g, 7.06 ng/g and 408 ng/g.

[3] = cerebrospinal fluid/plasma movement ratio
[4] = SD rats, single oral 3 mg/kg, an hour after administration

T2 sequence (Q9QYN8 whole entry): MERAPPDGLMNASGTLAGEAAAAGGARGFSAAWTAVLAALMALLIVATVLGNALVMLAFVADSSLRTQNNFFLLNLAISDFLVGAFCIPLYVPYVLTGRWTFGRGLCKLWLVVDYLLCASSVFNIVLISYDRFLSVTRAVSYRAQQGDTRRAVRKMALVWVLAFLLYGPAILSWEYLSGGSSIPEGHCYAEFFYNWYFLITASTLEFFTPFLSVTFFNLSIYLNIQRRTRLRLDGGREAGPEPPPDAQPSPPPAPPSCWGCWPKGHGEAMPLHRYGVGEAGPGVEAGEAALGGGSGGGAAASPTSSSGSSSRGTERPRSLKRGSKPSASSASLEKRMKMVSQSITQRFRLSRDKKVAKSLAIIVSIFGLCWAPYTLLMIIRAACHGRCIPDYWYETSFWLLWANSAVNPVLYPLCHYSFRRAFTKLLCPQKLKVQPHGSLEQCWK
T1 sequence (P08183 whole entry): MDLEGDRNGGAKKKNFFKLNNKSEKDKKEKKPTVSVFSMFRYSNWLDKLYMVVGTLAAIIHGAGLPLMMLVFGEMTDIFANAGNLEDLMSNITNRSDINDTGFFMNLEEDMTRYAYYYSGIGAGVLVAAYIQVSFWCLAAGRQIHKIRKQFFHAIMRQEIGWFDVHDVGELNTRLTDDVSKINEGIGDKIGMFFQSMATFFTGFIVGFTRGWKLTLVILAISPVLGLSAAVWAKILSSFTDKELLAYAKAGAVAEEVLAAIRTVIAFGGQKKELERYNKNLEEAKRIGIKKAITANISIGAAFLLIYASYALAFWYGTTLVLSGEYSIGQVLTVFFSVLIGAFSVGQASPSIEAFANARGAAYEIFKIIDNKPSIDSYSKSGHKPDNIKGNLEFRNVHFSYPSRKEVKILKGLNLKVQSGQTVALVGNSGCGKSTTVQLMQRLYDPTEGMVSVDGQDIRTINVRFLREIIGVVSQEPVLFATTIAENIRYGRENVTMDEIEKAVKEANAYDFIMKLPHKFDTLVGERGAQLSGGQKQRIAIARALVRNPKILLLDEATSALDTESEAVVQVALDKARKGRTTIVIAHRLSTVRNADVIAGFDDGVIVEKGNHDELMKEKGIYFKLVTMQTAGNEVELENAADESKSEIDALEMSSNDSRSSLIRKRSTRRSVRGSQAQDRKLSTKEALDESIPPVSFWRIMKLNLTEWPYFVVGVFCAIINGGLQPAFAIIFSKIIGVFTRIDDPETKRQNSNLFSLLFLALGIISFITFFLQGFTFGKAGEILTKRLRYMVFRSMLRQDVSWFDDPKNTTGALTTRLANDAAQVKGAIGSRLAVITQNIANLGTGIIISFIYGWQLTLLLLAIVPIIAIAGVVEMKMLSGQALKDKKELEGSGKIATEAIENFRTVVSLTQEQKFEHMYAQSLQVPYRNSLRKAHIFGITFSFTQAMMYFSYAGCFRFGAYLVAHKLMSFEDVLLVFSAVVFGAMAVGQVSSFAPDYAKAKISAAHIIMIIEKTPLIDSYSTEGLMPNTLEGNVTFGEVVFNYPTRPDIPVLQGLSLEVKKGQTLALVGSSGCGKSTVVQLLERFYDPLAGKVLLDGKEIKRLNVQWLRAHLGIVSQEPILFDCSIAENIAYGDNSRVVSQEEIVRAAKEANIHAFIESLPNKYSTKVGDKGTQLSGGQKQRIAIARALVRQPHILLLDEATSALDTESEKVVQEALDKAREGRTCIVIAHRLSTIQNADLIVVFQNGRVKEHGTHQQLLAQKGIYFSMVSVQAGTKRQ
T3 sequence (Q9QYN8 whole entry): as the sequence (Q9QYN8 whole entry) above

Compound | efflux ratio at 10 μM [1] | pIC50 (H3 receptor) | further results
CN(C)C(=O)c1ccn(-c2ccc(OC3CCN(C4CCC4)CC3)cc2)c1 [compound 6] | 1.2 | 8.49 | –
Cc1cc(C(=O)N2CCCC2)c(C)n1-c1ccc(OC2CCN(C3CCC3)CC2)cc1 [Compound No. 15, (1-{4-[(1-cyclobutylpiperidin-4-yl)oxy]phenyl}-2,5-dimethyl-1H-pyrrol-3-yl)(pyrrolidin-1-yl)methanone] | – | 8.18 | –
CNC(=O)c1ccn(-c2ccc(OC3CCN(C(C)(C)C)CC3)cc2)c1 [Compound No. 20, 1-{4-[(1-tert-butylpiperidin-4-yl)oxy]phenyl}-N-methyl-1H-pyrrole-3-carboxamide] | – | 7.68 | –
O=C(NC1CCC1)c1ccn(-c2ccc(OC3CCN(C4CCC4)CC3)cc2)c1 [compound 13, N-cyclobutyl-1-{4-[(1-cyclobutylpiperidin-4-yl)oxy]phenyl}-1H-pyrrole-3-carboxamide] | – | 8.43 | –
CC(C)N1CCC(Oc2ccc(-n3ccc(C(=O)N4CCCC4)c3)cc2)CC1 [Compound No. 17, (1-{4-[(1-isopropylpiperidin-4-yl)oxy]phenyl}-1H-pyrrol-3-yl)(pyrrolidin-1-yl)methanone] | – | 8.96 | –
C[C@@H]1CCCN1CCCOc1ccc(-n2ccc(C(=O)N3CCCC3)c2)cc1 [Compound No. 16, [1-(4-{3-[(2R)-2-methylpyrrolidin-1-yl]propoxy}phenyl)-1H-pyrrol-3-yl](pyrrolidin-1-yl)methanone] | 3.1 | 8.82 | –
CNC(=O)c1ccn(-c2ccc(OC3CCN(C4CCC4)CC3)cc2)c1 [compound 7, 1-{4-[(1-cyclobutylpiperidin-4-yl)oxy]phenyl}-N-methyl-1H-pyrrole-3-carboxamide] | 1 | 8.23 | pIC50 (histamine H3 receptor): ≥ 7.00; concentration at 1 h [2]: 408 ng/g and 50.5 ng/mL; Kp at 1 h ([2]; brain/plasma movement ratio): 2.2; Kp at 1 h [2, 3]: 0.3
C[C@@H]1CN(C(=O)c2ccn(-c3ccc(OC4CCN(C5CCC5)CC4)cc3)c2)C[C@H](C)O1 [compound 10] | – | 8.17 | –
(1-{4-[(1-cyclobutylpiperidin-4-yl)oxy]phenyl}-1H-pyrrol-3-yl)(piperidin-1-yl)methanol [compound 5] | – | 8.49 | –
NC(=O)c1ccn(-c2ccc(OC3CCN(C4CCC4)CC3)cc2)c1 [compound 8, 1-{4-[(1-cyclobutylpiperidin-4-yl)oxy]phenyl}-1H-pyrrole-3-carboxamide] | 1.6 | 8.02 | –
O=C(c1ccn(-c2ccc(OC3CCN(C4CCC4)CC3)cc2)c1)N1CC2(COC2)C1 [compound 11, (1-{4-[(1-cyclobutylpiperidin-4-yl)oxy]phenyl}-1H-pyrrol-3-yl)(2-oxa-6-azaspiro[3.3]hepta-6-yl)methanone] | – | 9.00 | –
O=C(O)c1ccn(-c2ccc(OC3CCN(C4CCC4)CC3)cc2)c1 [Compound No. 2, 1-{4-[(1-cyclobutylpiperidin-4-yl)oxy]phenyl}-1H-pyrrole-3-carboxylic acid] | – | 7.47 | –
CNC(=O)c1ccn(-c2ccc(OC3CCN(C(C)C)CC3)cc2)c1 [Compound No. 18, 1-{4-[(1-isopropylpiperidin-4-yl)oxy]phenyl}-N-methyl-1H-pyrrole-3-carboxamide] | – | 7.42 | –
(1-{4-[(1-cyclobutylpiperidin-4-yl)oxy]phenyl}-1H-pyrrol-3-yl)(pyrrolidin-1-yl)methanol [compound 4] | – | 8.96 | Efflux ratio ([1]; LLC-GA5-COL300 cells on transwell, 10 μM): 1.3; brain/plasma movement ratio [2, 4]: 2.9; intracerebral concentration [2, 4]: 7.06 ng/g
COC(=O)c1ccn(-c2ccc(OC3CCN(C4CCC4)CC3)cc2)c1 [Compound No. 1, methyl 1-{4-[(1-cyclobutylpiperidin-4-yl)oxy]phenyl}-1H-pyrrole-3-carboxylate] | – | 7.92 | –
O=C(c1ccn(-c2ccc(OC3CCN(C4CCC4)CC3)cc2)c1)N1CCOCC1 [compound 9, (1-{4-[(1-cyclobutylpiperidin-4-yl)oxy]phenyl}-1H-pyrrol-3-yl)(morpholin-4-yl)methanone] | 1.6 | 8.60 | –
CC(C)(C)NC(=O)c1ccn(-c2ccc(OC3CCN(C4CCC4)CC3)cc2)c1 [compound 12, N-tert-butyl-1-{4-[(1-cyclobutylpiperidin-4-yl)oxy]phenyl}-1H-pyrrole-3-carboxamide] | – | 8.28 | –
CC(C)(C)N1CCC(Oc2ccc(-n3ccc(C(=O)N4CCCC4)c3)cc2)CC1 [Compound No. 19, (1-{4-[(1-tert-butylpiperidin-4-yl)oxy]phenyl}-1H-pyrrol-3-yl)(pyrrolidin-1-yl)methanone] | – | 8.77 | –
O=C(c1ccn(-c2ccc(OC3CCN(C4CCC4)CC3)cc2)c1)N1CCC1 [Compound No. 3, azetidin-1-yl (1-{4-[(1-cyclobutylpiperidin-4-yl)oxy]phenyl}-1H-pyrrol-3-yl)methanone] | 1.4 | 8.77 | pIC50 (histamine H3 receptor): ≥ 7.00; concentration at 1 h [2]: 78.2 ng/g and 5.75 ng/mL; Kp at 1 h ([2]; brain/plasma movement ratio): 4.5; Kp at 1 h [2, 3]: 0.3
